Measurements from ChEMBL document CHEMBL1201862, “PubChem BioAssay data set” (2004).
Activity calls are given as the source filed them.

Tests used:
[1] = biological target: Coagulation factor XII (Homo sapiens, UniProt P00748); type: functional;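 also: activated factor XIIa alpha cleaving a fluorogenic AMC peptide substrate; inhibitor potency from loss of enzyme activity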
[2] = biological target: T1, Alkaline phosphatase, tissue-nonspecific isozyme (Homo sapiens, UniProt P05186); assay: potency against alkaline phosphatase TNAP – biochemical, luminescent, dose response, SAR follow-up (AID 1056)
T1 sequence (P05186 whole entry): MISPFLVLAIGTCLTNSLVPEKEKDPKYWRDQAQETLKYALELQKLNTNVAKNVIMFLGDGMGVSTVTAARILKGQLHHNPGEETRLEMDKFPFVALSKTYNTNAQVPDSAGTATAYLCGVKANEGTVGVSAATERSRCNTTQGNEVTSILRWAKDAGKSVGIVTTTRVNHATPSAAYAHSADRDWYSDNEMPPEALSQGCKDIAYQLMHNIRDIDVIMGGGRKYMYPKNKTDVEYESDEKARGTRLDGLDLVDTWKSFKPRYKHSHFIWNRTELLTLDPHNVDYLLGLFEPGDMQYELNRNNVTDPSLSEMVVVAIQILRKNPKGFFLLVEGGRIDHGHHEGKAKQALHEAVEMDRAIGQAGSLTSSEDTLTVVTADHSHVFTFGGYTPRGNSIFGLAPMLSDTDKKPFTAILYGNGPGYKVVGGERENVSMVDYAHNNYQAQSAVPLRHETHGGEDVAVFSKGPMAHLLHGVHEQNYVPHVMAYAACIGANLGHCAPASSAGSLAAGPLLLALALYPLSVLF

[3] = biological target: Alkaline phosphatase, placental type (Homo sapiens, UniProt P05187); assay: human placental alkaline phosphatase inhibition – biochemical, luminescence, confirmation (AID 1512); type: functional
Sequence of Alkaline phosphatase, placental type (P05187 whole entry): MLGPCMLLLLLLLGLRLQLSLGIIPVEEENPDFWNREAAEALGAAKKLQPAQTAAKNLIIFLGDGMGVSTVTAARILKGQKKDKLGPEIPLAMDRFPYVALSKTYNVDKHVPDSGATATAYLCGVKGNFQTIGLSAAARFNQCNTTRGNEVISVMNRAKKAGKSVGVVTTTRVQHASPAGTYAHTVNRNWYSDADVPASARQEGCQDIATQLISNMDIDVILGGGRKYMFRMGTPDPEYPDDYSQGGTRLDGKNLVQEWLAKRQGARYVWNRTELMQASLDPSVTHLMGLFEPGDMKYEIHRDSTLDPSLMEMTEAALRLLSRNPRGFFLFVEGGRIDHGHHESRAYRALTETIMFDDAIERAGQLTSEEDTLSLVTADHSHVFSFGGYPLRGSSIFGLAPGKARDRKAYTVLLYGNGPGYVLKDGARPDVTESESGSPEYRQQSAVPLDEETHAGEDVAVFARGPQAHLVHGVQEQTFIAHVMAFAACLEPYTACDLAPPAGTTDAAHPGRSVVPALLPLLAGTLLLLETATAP

[4] = biological target: DNA dC->dU-editing enzyme APOBEC-3G (Homo sapiens, UniProt Q9HC16); type: functional;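 also: Dose-response counterscreen measuring inhibition of APOBEC3G DNA deaminase activity, run while confirming APOBEC3A inhibitors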
Sequence of DNA dC->dU-editing enzyme APOBEC-3G (Q9HC16 whole entry): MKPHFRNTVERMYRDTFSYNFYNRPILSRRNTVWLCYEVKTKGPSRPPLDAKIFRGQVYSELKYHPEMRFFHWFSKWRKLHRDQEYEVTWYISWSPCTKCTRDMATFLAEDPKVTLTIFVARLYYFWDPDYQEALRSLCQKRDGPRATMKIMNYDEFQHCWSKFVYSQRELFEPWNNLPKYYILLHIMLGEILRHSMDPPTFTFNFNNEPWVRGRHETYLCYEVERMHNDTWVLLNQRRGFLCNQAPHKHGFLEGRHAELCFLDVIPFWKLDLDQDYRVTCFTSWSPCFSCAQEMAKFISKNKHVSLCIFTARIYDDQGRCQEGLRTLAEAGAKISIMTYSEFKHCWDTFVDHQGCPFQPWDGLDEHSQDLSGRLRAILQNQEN

[5] = biological target: T2, Bcl-2-like protein 10 (Homo sapiens, UniProt Q9HD36); assay: Bcl-B/TR3 peptide binding disruption – biochemical, fluorescence polarization, FITC-TR3 peptide, selectivity assay for Bfl-1 inhibitor project, primary screen (AID 748);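 also: fluorescence polarization from a fluorescein-labelled TR3 peptide binding purified Bcl-B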
T2 sequence (Q9HD36 whole entry): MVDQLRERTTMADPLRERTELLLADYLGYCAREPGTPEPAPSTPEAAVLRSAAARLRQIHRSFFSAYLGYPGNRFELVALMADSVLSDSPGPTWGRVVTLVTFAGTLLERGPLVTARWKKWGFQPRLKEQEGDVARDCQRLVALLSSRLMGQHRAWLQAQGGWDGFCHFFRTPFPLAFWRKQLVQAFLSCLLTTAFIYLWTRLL

[6] = HPDE-C7 pancreatic duct cell viability loss – fluorescence, HTS (AID 430); type: functional, cell-based; conditions: Homo sapiens
[7] = biological target: T3, Protein Tat (Human immunodeficiency virus type 1 group M subtype B (isolate HXB2)(HIV-1), UniProt P04608); type: functional;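 also: tat binding to TAR RNA read out by fluorescence polarization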
T3 sequence (P04608 whole entry): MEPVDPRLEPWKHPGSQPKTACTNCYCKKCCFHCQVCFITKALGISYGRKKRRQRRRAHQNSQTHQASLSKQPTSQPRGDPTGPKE

[8] = viability loss of HPDE-C7K cells – cell-based, fluorescence, HTS, primary screen (AID 431); type: functional; conditions: Homo sapiens
[9] = biological target: DNA dC->dU-editing enzyme APOBEC-3A (Homo sapiens, UniProt P31941); assay: Dose Response confirmation of small molecule APOBEC3A DNA Deaminase Inhibitors via a fluorescence-based single-stranded DNA deaminase assay. [Related pubchem assays (depositor defined):AID493011, AID493024]; type: functional
Sequence of DNA dC->dU-editing enzyme APOBEC-3A (P31941 whole entry): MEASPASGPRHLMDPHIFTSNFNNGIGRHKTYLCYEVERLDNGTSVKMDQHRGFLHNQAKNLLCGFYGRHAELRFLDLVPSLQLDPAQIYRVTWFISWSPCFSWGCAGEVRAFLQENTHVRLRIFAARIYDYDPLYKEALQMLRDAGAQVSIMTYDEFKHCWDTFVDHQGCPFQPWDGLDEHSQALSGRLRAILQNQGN

[10] = biological target: T4, Estrogen receptor beta (Homo sapiens, UniProt Q92731); assay: blockers of SRC-3 recruitment to ERβ – biochemical, ELISA, streptavidin-HRP readout, orthogonal assay, confirmation (AID 1060)
T4 sequence (Q92731 whole entry): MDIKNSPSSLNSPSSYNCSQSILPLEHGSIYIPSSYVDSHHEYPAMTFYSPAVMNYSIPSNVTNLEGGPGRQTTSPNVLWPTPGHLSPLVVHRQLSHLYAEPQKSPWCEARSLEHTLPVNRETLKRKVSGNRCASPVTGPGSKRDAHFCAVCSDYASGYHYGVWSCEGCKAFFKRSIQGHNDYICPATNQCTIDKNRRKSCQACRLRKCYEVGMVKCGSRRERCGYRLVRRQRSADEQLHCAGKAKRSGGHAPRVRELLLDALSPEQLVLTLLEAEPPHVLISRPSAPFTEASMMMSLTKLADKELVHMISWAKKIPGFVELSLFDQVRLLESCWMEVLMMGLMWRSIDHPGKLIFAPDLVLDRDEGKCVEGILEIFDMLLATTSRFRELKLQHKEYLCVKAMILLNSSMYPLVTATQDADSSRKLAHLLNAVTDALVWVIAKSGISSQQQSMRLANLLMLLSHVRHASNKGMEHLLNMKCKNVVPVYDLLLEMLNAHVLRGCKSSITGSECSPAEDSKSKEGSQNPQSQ

[11] = biological target: T4, Estrogen receptor beta
[12] = biological target: T5, Estrogen receptor (Homo sapiens, UniProt P03372);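 also: potency for inhibiting coactivator peptide recruitment to the receptor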
T5 sequence (P03372 whole entry): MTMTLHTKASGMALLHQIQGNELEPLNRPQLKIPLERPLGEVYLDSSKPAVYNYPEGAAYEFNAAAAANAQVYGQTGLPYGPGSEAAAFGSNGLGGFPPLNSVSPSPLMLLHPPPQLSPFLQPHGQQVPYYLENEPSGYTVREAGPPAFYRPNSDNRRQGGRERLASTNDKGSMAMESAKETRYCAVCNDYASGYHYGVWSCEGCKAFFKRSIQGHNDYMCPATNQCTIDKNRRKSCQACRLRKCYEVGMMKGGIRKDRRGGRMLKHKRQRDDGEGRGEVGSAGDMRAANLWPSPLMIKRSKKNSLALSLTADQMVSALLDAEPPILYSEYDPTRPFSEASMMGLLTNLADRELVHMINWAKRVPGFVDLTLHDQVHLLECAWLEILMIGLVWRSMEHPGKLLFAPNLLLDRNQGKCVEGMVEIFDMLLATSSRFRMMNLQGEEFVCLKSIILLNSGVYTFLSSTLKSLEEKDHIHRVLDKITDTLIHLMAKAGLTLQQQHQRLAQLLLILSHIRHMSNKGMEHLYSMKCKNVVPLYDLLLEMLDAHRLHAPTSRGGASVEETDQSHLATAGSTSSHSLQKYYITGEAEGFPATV

[13] = biological target: Eukaryotic translation initiation factor 4H (Homo sapiens, UniProt Q15056); assay: eIF4H binding inhibition – biochemical, uHTS, fluorescence polarization, translation initiation inhibitor project, primary screen (AID 2012)
[14] = biological target: Polyadenylate-binding protein 1 (Homo sapiens, UniProt P11940); assay: blockers of PABP interaction with poly(A) – biochemical, fluorescence polarization, […] (AID 2014)
Sequence of Polyadenylate-binding protein 1 (P11940 whole entry): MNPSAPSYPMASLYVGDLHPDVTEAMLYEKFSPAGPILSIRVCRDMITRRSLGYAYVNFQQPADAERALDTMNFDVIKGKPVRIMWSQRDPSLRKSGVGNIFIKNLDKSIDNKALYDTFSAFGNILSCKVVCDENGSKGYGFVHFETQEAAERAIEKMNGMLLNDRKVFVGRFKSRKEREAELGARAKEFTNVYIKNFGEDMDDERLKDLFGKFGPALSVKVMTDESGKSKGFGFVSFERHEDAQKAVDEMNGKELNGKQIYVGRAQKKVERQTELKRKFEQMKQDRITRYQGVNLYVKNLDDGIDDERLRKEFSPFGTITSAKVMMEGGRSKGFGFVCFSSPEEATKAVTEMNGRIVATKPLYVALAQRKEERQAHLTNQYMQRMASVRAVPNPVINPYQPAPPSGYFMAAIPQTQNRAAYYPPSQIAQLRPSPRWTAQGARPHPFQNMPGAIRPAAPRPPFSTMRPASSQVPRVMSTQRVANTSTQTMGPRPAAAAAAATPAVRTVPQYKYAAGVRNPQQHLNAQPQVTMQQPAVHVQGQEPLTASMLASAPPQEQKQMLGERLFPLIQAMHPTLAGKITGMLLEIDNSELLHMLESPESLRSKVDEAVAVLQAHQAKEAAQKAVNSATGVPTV

Sequence of Coagulation factor XII (P00748 20-372 limits assumed): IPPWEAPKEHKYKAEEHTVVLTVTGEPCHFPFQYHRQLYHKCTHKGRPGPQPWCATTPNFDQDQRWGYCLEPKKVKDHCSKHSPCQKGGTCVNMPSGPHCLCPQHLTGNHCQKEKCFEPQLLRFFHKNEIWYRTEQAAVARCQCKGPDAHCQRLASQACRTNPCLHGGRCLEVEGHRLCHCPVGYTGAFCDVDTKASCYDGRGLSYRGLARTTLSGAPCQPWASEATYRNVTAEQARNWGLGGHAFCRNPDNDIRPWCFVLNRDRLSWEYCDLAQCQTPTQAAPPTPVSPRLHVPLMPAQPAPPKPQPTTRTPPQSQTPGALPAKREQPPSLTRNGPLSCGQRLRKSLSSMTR
Sequence of Coagulation factor XII (P00748 373-615 limits assumed): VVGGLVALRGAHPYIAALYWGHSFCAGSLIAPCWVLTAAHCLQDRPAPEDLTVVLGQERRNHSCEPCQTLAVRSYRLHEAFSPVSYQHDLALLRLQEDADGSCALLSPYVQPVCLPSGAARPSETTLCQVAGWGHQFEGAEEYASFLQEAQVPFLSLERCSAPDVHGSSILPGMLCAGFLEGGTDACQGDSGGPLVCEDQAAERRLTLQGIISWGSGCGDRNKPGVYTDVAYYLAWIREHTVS

Question: With `COc1cccc(NC(C(=O)Nc2cccc(C(C)=O)c2)c2ccccc2)c1` (stereo unspecified) as the compound, how does the IC50 [1] read?
Answer: > 50 µM (inactive)

Question: Which IC50 [2] does the source give for `Oc1ccc(C2=Nn3c(nnc3-c3ccccc3Cl)SC2)cc1O` here?
Answer: 4.02 µM (active)

Question: And the IC50 [3]?
Answer: 15 µM (active)

Question: For `COc1ccc2c(c1)c(=O)oc1cc(OCC(=O)N3CCC(C)CC3)ccc12`, which IC50 [4] is on record?
Answer: > 100 µM (inactive)

Question: And the IC50 [5]?
Answer: 31.8 µM (active)

Question: And the EC50 [6]?
Answer: > 20 µM (not active)

Question: And the IC50 [7]?
Answer: > 100 µM (active)

Question: What about the EC50 [8] of the same compound?
Answer: > 20 µM (not active)

Question: What about the IC50 [9] of the same compound?
Answer: 21.6 µM (active)

Question: What about the IC50 [10] of the same compound?
Answer: 14.3 µM (not active)

Question: What about the IC50 [11] of the same compound?
Answer: 5.31 µM (active)

Question: What about the IC50 [12] of the same compound?
Answer: 11.7 µM (active)

Question: What does the source list for `CCCn1c2c(c(=N)c3c1CCC3)CCC2`?
Answer: IC50 [4]: 2.66 µM (active); IC50 [13]: > 100 µM (inactive); IC50 [14]: 4.08 µM (active); IC50 [9]: 2.76 µM (active)
